According to patent US4374773A, “Triazolo-benzodiazepine derivatives” (Hoffmann-La Roche Inc., priority 1980, dated 1983):

Experiments:
aldosterone [1] = assay: aldosterone-antagonistic properties in adrenalectomised rats (urine volume, sodium and potassium excretion); assay type: in vivo, Female Holtzmann rats; conditions: aldosterone s.c. 30 min later, urine collected 3 hours, control = aldosterone only
Procedure: If compounds of formula I are administered to the animals before the treatment with aldosterone, then there is observed, in comparison with animals which are treated only with aldosterone (control animals), a pronounced increase of the sodium excretion (i.e. the sodium retention caused by aldosterone is antagonised), whereas the potassium excretion and the urine volume are influenced to a lesser extent.
The standard experiment is carried out as follows:
Female Holtzmann rats (150-180 g) are bilaterally adrenalectomised 70 to 74 hours before the beginning of the experiment. After the operation, the animals receive a customary rat dry feed and 0.9 percent sodium chloride solution for drinking. 16 to 17 hours before the beginning of the experiment the feed is removed from the animals, but they can subsequently drink, as before, 0.9 percent sodium chloride solution ad libitum. At the beginning of the experiment the substance to be tested as an aldosterone-antagonist is administered to the animals by means of a stomach probe. 30 minutes later the animals receive a subcutaneous injection of 4 mmg/kg of aldosterone. After a further 90 minutes, the urinary bladders of the animals are emptied by careful suprapubic pressure, whereupon the animals are placed individually in metabolic cages without food and without drink. The urine of the animals is then collected for 3 hours, whereupon their urinary bladders are once more emptied. The spontaneously excreted urine and the remaining urine obtained at the conclusion of the experiment by pressing-out the urinary bladders are collected in graduated centrifuge glasses. Sodium and potassium concentrations in the urine are determined with a flame photometer.
(§1) The following Table contains results which have been obtained in the previously described experiment with representative compounds of formula I. In this Table there are given for each compound in question the dosage administered (in mg/kg p.o.) as well as the percentage variation in the urine volume, the sodium excretion and the potassium excretion in comparison with the control animals (i.e. in comparison with the animals treated only with aldosterone). Moreover, the Table contains data relating to the acute toxicity of the compounds investigated (LD 50 in mg/kg in the case of single oral administration to mice).

[2] = acute toxicity, single oral administration to mice; conditions: mouse, in vivo
From the text: as §1

aldosterone [3] = assay: aldosterone-antagonistic properties in adrenalectomised rats (urine volume, sodium and potassium excretion); assay type: in vivo, Female Holtzmann rats; conditions: compared with untreated animals

SMILES | potassium excretion [K+] in %, based on control animals (aldosterone [1]; 1 mg/kg p.o.) | sodium excretion [Na+] in %, based on control animals (aldosterone [1]; 1 mg/kg p.o.) | urine volume in %, based on control animals (aldosterone [1]; 1 mg/kg p.o.) | LD50 [2] | potassium excretion [K+] in %, based on control animals (aldosterone [1]; 10 mg/kg p.o.) | sodium excretion [Na+] in %, based on control animals (aldosterone [1]; 10 mg/kg p.o.) | urine volume in %, based on control animals (aldosterone [1]; 10 mg/kg p.o.) | excreted urine volume, effect of aldosterone (aldosterone [3]) | potassium excretion, effect of aldosterone (aldosterone [3]) | sodium excretion, effect of aldosterone (aldosterone [3])
Cc1nnc2n1-c1ccc(NC(=O)NCCO)cc1C(c1ccccc1F)=NC2(C)C [Example 4, 1-[6-(o-fluorophenyl)-1,4,4-trimethyl-4H-s-triazolo[4,3-a][1,4]benzodiazepin-8-yl]-3-(2-hydroxyethyl)urea] | 90% | 256% | 112% | > 5000 mg/kg |  |  |  |  |  | 
CN(C)C(=O)Nc1ccc2c(c1)C(c1ccccc1F)=NC(C)(C)c1nncn1-2 [Example 5, 3-[6-(o-fluorophenyl)-4,4-dimethyl-4H-s-triazolo[4,3-a][1,4]benzodiazepin-8-yl]-1,1-dimethylurea] | 65% | 238% | 106% | > 5000 mg/kg |  |  |  |  |  | 
CN(C)C(=O)Nc1ccc2c(c1)C(c1ccccc1Cl)=NCc1nncn1-2 [Example 8, 3-[6-(o-chlorophenyl)-4H-s-triazolo[4,3-a][1,4]benzodiazepin-8-yl]-1,1-dimethylurea] |  |  |  | > 5000 mg/kg | 100% | 252% | 131% |  |  | 
Cc1nnc2n1-c1ccc(NC(=O)N(C)C)cc1C(c1ccccc1Cl)=NC2 [Example 10, 3-[6-(o-chlorophenyl)-1-methyl-4H-s-triazolo[4,3-a][1,4]-benzodiazepin-8-yl]-1,1-dimethylurea] |  |  |  | > 5000 mg/kg | 112% | 252% | 103% |  |  | 
Cc1nnc2n1-c1ccc(NC(=O)NCCO)cc1C(c1ccccc1Cl)=NC2(C)C [Example 12, 1-[6-(o-chlorophenyl)-1,4,4-trimethyl-4H-s-triazolo[4,3-a][1,4]benzodiazepin-8-yl]-3-(2-hydroxyethyl)urea] | 75% | 215% | 75% | > 5000 mg/kg |  |  |  |  |  | 
CC1(C)N=C(c2ccccc2Cl)c2cc(NC(=O)N3CCCC3)ccc2-n2cnnc21 [Example 13, N-[6-(o-chlorophenyl)-4,4-dimethyl-4H-s-triazolo[4,3-a][1,4]benzodiazepin-8-yl]-1-pyrrolidinecarboxamide] | 72% | 155% | 97% | > 5000 mg/kg |  |  |  |  |  | 
C[C@]12CCC(=O)C=C1CC[C@@H]1[C@@H]2[C@@H](O)C[C@]2(C=O)[C@@H](C(=O)CO)CC[C@@H]12 [aldosterone] |  |  |  |  |  |  |  | reduction of the excreted urine volume | increased potassium excretion | pronounced reduction of the sodium excretion
